Assay results taken from ChEMBL document CHEMBL1201862, “PubChem BioAssay data set” (2004).
The source made the active and inactive calls.

Columns and labels:
[1] = target: Lysosomal acid glucosylceramidase (Homo sapiens, UniProt P04062); assay: Dose response cell-based high throughput screening assay to identify enhancers of beta-glucosidase activity. [Related pubchem assays: 784 ]; type: functional
[2] = target: T1, Neuropeptide Y receptor type 1 (Homo sapiens, UniProt P25929); assay: Fluorescence-based counterscreen for agonists of NPY-Y2: cell-based high-throughput dose response assay for agonists of NPY-Y1.; type: functional
T1 sequence (P25929 whole entry): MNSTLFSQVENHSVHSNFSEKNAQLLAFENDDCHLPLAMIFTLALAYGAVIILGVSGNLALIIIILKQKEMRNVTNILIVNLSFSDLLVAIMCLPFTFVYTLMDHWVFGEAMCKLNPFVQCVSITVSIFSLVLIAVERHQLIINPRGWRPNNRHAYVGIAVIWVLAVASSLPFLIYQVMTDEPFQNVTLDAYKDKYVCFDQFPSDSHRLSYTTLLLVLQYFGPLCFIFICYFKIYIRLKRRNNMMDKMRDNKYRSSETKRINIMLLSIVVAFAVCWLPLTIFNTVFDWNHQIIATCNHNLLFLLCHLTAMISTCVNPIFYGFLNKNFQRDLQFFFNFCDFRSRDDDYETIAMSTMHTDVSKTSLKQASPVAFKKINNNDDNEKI

HEK293 = assay: Fluorescence-based counterscreen for potentiators or agonists of NPY-Y2: cell-based high-throughput dose response assay to identify inhibitors of cyclic nucleotide gated ion channel (CNGC) activity. In this assay, the parental HEK293 cell line transfected with a cyclic-nucleotide gated ion channel (CNGC)-based cAMP sensor is used to measure inhibition of isoproterenol-induced CNGC activity by test compound.; type: functional; conditions: Homo sapiens;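 note: stimulus is 1 µM isoproterenol at EC100 plus PDE inhibitor Ro 20-1724 at 25 µM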
[3] = target: T2, Neuropeptide Y receptor type 2 (Homo sapiens, UniProt P49146); assay: Fluorescence-based cell-based high-throughput dose response assay for agonists of NPY-Y2. [Related pubchem assays: 1703 (Screening assay (CNGC inhibitors).), 1359 (Screening assay (NPY-Y2 potentiators or agonists).), 1304 (Screening assay (NPY-Y1 potentiators or agonists).), 1710 (Screening assay (NPY-Y2 agonists).), 1791 (Summary AID.)]; type: functional
T2 sequence (P49146 whole entry): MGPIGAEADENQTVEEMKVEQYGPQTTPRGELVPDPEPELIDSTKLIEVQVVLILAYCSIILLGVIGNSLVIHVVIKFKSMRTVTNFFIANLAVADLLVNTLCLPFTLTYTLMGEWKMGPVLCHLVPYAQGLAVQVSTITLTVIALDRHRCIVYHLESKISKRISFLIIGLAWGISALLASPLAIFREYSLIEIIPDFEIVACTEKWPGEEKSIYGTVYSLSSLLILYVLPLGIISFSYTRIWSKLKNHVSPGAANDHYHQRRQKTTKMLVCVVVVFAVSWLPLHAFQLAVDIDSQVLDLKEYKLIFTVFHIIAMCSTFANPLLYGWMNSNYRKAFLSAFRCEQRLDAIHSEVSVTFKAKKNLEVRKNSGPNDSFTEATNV

[4] = mitochondrial function rescue without frataxin homolog – Friedreich's ataxia, plus single-dose screen, dose response (AID 1465); type: functional;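 note: yeast depleted of Yfh1p frataxin homolog grown on glycerol needing respiration; WST-1 tetrazolium dye reduction as measure of cellular dehydrogenase metabolic activity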
[5] = target: G-protein coupled receptor 35 (Homo sapiens, UniProt Q9HC97); assay: inhibition of zaprinast-stimulated GPR35 beta-arrestin translocation – imaging, U2OS, beta-arrestin-GFP, zaprinast agonist, primary screen (AID 2058); type: functional;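 note: antagonist potency meaning inhibition of agonist-induced arrestin redistribution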
Chain of G-protein coupled receptor 35 (Q9HC97 whole entry): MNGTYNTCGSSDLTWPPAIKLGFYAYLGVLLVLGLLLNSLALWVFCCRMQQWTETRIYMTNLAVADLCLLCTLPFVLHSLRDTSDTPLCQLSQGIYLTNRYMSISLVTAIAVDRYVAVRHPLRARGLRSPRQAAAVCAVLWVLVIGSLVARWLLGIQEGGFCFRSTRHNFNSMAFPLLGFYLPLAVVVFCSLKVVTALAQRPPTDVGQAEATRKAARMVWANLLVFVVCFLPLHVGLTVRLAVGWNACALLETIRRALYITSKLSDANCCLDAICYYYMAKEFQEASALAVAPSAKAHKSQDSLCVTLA

[6] = Counterscreen for IDE inhibitors: Luminescence-based cell-based high throughput dose response assay to identify compounds that are cytotoxic to HEK cells. [Related pubchem assays: 434962 (Primary screen (IDE inhibitors in singlicate)), 449730 (Counterscreen (Cytotoxicity in triplicate)), 435028 (Confirmation (IDE inhibitors in triplicate)) …; type: functional; conditions: HEK293
Insulin-degrading enzyme = target: T3, Insulin-degrading enzyme (Homo sapiens, UniProt P14735); assay: Dose Response: Fluorescence polarization-based cell-based high throughput dose response assay for inhibitors of insulin-degrading enzyme (IDE). [Related pubchem assays: 434962 (Primary screen (IDE inhibitors in singlicate)), 449730 (Counterscreen (Cytotoxicity in triplicate)), 435028 (Confirmation (IDE inhibitors in triplicate)), 434984 (Summary …; type: functional
T3 sequence (P14735 whole entry): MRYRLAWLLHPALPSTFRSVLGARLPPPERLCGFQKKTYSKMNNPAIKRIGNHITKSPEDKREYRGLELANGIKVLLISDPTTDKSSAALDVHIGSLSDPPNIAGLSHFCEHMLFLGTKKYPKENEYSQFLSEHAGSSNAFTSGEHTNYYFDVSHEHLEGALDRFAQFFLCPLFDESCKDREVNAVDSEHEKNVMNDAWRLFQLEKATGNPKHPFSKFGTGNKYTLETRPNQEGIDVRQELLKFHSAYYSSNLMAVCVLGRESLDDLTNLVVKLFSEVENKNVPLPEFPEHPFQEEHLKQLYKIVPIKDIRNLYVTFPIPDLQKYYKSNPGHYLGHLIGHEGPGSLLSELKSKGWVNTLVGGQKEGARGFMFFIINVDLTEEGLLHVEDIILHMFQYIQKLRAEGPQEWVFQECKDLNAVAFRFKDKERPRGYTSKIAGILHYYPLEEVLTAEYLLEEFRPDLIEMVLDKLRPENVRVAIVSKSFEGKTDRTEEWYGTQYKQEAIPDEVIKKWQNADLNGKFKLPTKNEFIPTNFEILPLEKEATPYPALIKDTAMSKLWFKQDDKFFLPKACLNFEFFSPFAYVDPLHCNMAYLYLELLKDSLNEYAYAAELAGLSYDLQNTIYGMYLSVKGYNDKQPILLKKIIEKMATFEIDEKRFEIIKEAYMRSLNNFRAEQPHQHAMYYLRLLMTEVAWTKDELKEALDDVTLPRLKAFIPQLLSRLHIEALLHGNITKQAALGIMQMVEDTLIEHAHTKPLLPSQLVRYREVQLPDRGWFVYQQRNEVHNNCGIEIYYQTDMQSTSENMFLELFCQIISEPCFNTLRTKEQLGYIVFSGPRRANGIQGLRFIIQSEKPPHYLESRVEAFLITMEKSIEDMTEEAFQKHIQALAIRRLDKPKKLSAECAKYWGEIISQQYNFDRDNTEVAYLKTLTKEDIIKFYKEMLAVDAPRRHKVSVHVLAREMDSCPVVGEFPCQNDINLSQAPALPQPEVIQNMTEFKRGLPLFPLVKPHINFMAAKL

MDA-MB-435 = assay: cells; type: functional, cell-based; conditions: Homo sapiens
[7] = target: Beta-2 adrenergic receptor (Homo sapiens, UniProt P07550); assay: ADRB2 activation measured by internalization – cell-based, FAP fluorogen, flow cytometry, cherry pick 1, dose response (AID 588763); type: functional
Chain of Beta-2 adrenergic receptor (P07550 whole entry): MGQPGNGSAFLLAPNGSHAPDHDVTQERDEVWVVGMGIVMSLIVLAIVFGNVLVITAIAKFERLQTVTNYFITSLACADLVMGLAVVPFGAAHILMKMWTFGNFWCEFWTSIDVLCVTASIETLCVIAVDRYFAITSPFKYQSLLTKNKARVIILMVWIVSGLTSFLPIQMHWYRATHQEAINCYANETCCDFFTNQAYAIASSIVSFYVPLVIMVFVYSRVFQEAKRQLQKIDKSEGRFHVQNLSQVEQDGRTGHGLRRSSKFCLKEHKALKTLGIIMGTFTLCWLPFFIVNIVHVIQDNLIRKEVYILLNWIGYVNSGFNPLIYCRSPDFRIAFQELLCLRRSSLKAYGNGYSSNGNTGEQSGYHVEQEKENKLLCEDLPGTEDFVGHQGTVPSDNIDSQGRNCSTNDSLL

cells = type: functional, cell-based; conditions: PPC-1
[8] = target: Cyclin-dependent kinase 5/CDK5 activator 1 (Homo sapiens, UniProt Q00535); assay: blockade of human CDK5 activity – biochemical, cherry-picked samples, set 2, dose response (AID 504545)
Chain of Cyclin-dependent kinase 5/CDK5 activator 1 (Q00535 whole entry): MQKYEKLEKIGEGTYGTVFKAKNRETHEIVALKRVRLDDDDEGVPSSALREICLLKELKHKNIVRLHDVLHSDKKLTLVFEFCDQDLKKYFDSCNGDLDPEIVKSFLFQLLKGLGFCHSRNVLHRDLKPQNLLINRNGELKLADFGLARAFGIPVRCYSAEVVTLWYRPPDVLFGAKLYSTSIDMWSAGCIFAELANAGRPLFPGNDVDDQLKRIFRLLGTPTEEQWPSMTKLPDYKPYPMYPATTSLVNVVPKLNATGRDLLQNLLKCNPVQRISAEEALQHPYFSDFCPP
Chain of Cyclin-dependent kinase 5/CDK5 activator 1 (Q15078 whole entry, further chain): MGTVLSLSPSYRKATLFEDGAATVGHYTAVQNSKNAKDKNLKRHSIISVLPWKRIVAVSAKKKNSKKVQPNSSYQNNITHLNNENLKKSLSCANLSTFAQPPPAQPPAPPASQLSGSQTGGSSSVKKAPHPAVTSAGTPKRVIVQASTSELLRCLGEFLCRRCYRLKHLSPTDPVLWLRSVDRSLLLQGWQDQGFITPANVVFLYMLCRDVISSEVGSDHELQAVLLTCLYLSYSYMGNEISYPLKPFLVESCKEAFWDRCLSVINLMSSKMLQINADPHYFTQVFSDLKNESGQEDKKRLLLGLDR

H4 = assay: Luminescence Cell-Based Dose Response HTS to Identify Activators of 5'UTR Stem-Loop Driven Prion Protein mRNA Translation in H4 Neuroglioblastoma Cells. [Related pubchem assays: 1829 (Project Summary), 1814 (Primary HTS)]; type: functional; conditions: Homo sapiens
J774.A1 = assay: Confirmation of image-based Screening Assay for Inhibitors of Phagocytosis. [Related pubchem assays (depositor defined):AID1029, AID1643]; type: functional, cell-based; conditions: Mus musculus
[9] = HEK-293T viability loss after treatment – luminescence, T-cell screen hits, cytotoxicity control for TCR NF-kB inhibitor project, dose response (AID 489026); type: functional, cell-based;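 note: cells exposed to compound about 14 hours before the viability readout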
[10] = Luminescence Cell-Based Dose Response HTS to Identify Activators of Luciferase Translation or Activity in H4 […] Cells. [Related pubchem assays: 1829 (Project Summary), 1814 (Primary HTS)]; type: functional

Chain of Lysosomal acid glucosylceramidase (P04062 whole entry): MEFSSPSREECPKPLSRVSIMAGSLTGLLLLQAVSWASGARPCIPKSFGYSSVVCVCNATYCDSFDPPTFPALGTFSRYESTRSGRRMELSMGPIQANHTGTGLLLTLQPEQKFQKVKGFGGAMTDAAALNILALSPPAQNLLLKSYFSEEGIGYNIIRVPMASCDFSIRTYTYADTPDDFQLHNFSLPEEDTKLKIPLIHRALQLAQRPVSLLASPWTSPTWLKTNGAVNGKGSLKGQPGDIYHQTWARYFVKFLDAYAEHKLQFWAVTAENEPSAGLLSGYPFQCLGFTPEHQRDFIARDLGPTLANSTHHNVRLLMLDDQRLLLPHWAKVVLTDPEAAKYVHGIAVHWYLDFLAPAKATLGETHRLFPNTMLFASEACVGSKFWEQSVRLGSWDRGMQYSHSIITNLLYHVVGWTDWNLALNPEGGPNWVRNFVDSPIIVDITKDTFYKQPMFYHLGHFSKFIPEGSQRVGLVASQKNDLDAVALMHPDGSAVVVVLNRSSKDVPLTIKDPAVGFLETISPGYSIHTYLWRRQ

Structure (SMILES): O=C(NCCCn1ccnc1)Nc1ccc(Cl)cc1
- EC50 [1]: > 50 µM (not active)
- EC50 [2]: > 35.4 µM (not active)
- EC50 (HEK293): > 35.4 µM (not active)
- EC50 [3]: > 35.4 µM (not active)

Structure (SMILES): N#C/C(=C\c1ccc(N2CCCCC2)o1)C(N)=O
- EC50 [4]: > 100 µM (active)
- IC50 [5]: 6.55 µM (active)
- IC50 [6]: > 55.7 µM (not active)
- IC50 (Insulin-degrading enzyme): 8.72 µM (active)

Structure (SMILES): CC(Sc1nc(-c2ccccc2)cc(C(F)(F)F)n1)C(=O)N1CCCC1 (stereo unspecified)
- IC50 (MDA-MB-435): > 10 µM (inactive)
- EC50 [7]: 0.243 µM (active)
- IC50 (cells): > 10 µM (inactive)

Structure (SMILES): CC(C)Oc1ccc(NC(=O)Oc2ccccc2)cc1
- AC50 [8]: 129 µM (active)

Structure (SMILES): Cc1cc(=O)oc2cc(OCC3CC(c4ccccc4Cl)=NO3)ccc12 (stereo unspecified)
- EC50 (H4): > 120 µM (not active)
- IC50 (J774.A1): > 25 µM (inactive)
- IC50 [9]: > 80 µM (inactive)
- EC50 [10]: 11.7 µM (active)
